Molecular target: T1, sEH (Homo sapiens, UniProt P34913)
T1 sequence (P34913 1-555): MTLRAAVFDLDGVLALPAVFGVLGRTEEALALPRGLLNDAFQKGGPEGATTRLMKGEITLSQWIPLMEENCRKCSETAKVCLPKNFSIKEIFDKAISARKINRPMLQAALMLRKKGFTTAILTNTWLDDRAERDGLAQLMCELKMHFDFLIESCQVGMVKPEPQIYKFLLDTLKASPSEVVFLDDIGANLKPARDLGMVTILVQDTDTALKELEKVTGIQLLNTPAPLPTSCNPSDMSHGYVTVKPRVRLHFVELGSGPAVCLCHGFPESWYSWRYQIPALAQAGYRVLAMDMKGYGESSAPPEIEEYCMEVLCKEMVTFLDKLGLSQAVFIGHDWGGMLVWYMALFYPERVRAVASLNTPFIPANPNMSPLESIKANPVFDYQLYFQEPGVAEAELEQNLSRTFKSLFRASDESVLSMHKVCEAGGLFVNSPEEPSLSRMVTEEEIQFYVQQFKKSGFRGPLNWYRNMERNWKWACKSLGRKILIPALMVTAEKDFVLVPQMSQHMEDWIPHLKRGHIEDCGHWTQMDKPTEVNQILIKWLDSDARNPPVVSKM
Assay: sEH inhibition, assay not specified
Type: biochemical
Description: Any of a number of standard assays for determining epoxide hydrolase activity can be used to determine inhibition of sEH. For example, suitable assays are described in Gill, et al., Anal Biochem 131:273-282 (1983); and Borhan, et al., Analytical Biochemistry 231:188-200 (1995)). Suitable in vitro assays are described in Zeldin et al., J. Biol. Chem. 268:6402-6407 (1993). Suitable in vivo assays are described in Zeldin et al., Arch Biochem Biophys 330:87-96 (1996). […]
The enzyme also can be detected based on the binding of specific ligands to the catalytic site which either immobilize the enzyme or label it with a probe such as dansyl, fluoracein, luciferase, green fluorescent protein or other reagent. […] The enzyme also can be detected based on the generation of fluorescent products following the hydrolysis of the epoxide. […]

CCCCCCCCCCCCNC(=O)NC12CC3CC(CC(C3)C1)C2 [ADU, N-Adamantyl-N′-dodecyl urea]
activity as an inhibitor of sEH: particularly high activity
